From paper PMC11696576, “Next generation thiazolyl ketone inhibitors of cytosolic phospholipase A2 α for targeted cancer therapy” (Nature Communications, 2025)
Several values for one entry are separate records, joined by “and”; a condition that tells them apart may be missing. Equal entries are not always repeated.

How the values were obtained:
CCRF-CEM cells [1] = assay: cell viability, CTG assay, CCRF-CEM; settings: for viability signal, raw values: Figure 6e
Protocol: Data are the mean ± stdev of 3 biological replicates. c Viability of healthy T-cells measured by propidium iodide (PI) exclusion. Data are the mean ± stdev of 8 biological replicates for 1–16 µM AVX420, 5 for 32 µM AVX420 and 2 for 0.5 µM Staurosporine (Stau). d Cell viability measured by CTG assay in cells preincubated with 2.5 mM glutathione (GSH) or 2.5 mM N-acetyl cysteine (NAC) for 30 min before addition of 0.5 or 1 µM AVX420, 0.06 µM RSL-3, or 0.06 µM ML-210 for 24 h. Data are the mean ± stdev of 3 biological replicates. P-values were determined by one-way ANOVA with Dunnett’s correction for multiple testing and **** indicates P < 0.0001. e Cell viability measured by CTG assay. CCRF-CEM or Jurkat cells were co-treated with 0.5 µM AVX420 and either arachidonic acid (AA) at concentrations ranging from 1 to 100 µM or a mixture of 9 eicosanoids: 6-keto prostaglandin F1α, Thromboxane B2, prostaglandin F2α, prostaglandin E2, prostaglandin D2, 12(S)-HHTrE, 15(S)-HETE,12(S)-HETE, 5(S)-HETE at a final concentration of 2 ng/mL each (EIC-mix) for 24 h. Data are the mean ± stdev of 3 biological replicates. P-values were determined by two-way ANOVA with Sidak’s correction for multiple comparisons. f Proportion of intracellular ROS-positive cells measured by ROS-red staining and flow cytometry. Cells were treated with indicated concentrations of AVX420 (µM), 1 mM H2O2, 1 µM RSL-3, or 1 µM doxorubicin (dox) for 4 h. Data are the mean ± stdev of 3 biological replicates. g Intracellular ROS measurements in CCRF-CEM cells treated with AVX420 (0.5 µM), AVX002 (8 µM), or AACOCF3 (8 µM) for 4 h.
All cell lines were confirmed to be free of mycoplasma contamination. The cell lines were not authenticated. MV-4-11 were cultured in Iscove’s Modified Dulbecco’s Medium (Sigma, I3390). CCRF-CEM, Jurkat E6.1, and HL-60 cells were cultured in RPMI 1640 Medium RPMI-1640 medium (Sigma, R5886).

Jurkat E6.1 cells [2] = assay: intracellular ROS, ROS-red staining and flow cytometry, Jurkat E6.1; format: cell-based, human; set-up: ROS Negative Cells / ROS Negative Cells (Figure S9 a) / ROS Negative Cells (Figure S9c): unit not given here; settings: AA 20 µM; rep1, rep2
Protocol: (§1) Data are the mean ± stdev of 3 biological replicates. […] Data are the mean ± stdev of 3 biological replicates.
(§2) Rather, when combined with AVX420, exogenous AA augmented cell death (Fig. 6e). […] The response occurred within 1 h, peaked at 8–12 h, and preceded the loss of cell viability (Fig. S9a, b).
(§3) After treatment, cells were stained with cellular ROS Assay Kit (Cat. No. ab186029; Abcam, Cambridge, United Kingdom) following the manufacturer’s instructions, and ROS-positive cells were quantified by flow cytometry using either the NovoCyte flow cytometer, and Novoexpress Software v1.5.0 from Agilent Technologies (Santa Clara, USA) or the CytoFLEX flow cytometer and CytExpert analysis software v 2.5 from Beckman Coulter (California, United States). An example showing the gating strategy used to assess ROS-Red staining is found in Fig. S9d.

Jurkat E6.1 cells [3] = assay: cell viability, CTG assay, Jurkat E6.1; format: cell-based, human; settings: for viability signal, raw values: Figure 6e
Source text: as §1
Bjørn Tore Gjertsen (University of Bergen, Norway). […] The cell lines were not authenticated.

whole blood = assay: eicosanoid release from LPS-stimulated whole blood; format: cell-based, human; set-up: LTB4 / 5-HETE / 11,12-EET / 12-HETE: unit not given here; settings: for 15-HETE level, whole blood / PGE2 level, whole blood / TxB2 level, whole blood: individual replicate
Source text: In whole blood, bacterial lipopolysaccharide (LPS) stimulated the release of PGE2, thromboxane B2 (TXB2), and 15-hydroxyeicosatetraenoic acid (HETE). […] The levels of leukotriene B4 (LTB4), 12-HETE, 5-HETE and 11,12-epoxyeicosatrienoic acid (EET) were not affected by LPS stimulation but increased when exogenous AA was included, irrespective of the presence of GK420 (Fig. S1a).
Fig. 3 Ex vivo suppression of eicosanoid production by GK420. a Eicosanoid levels (pmol/mL) in the plasma of whole blood pretreated with vehicle (DMSO), 3, 10 or 30 µM GK420,) 10 µM arachidonyl trifluoromethyl ketone (ATK), or 1 μM indomethacin (Indo) before stimulation with 1 µg/mL LPS for 24 h. […] All box and whisker plots show the mean (center line), stdev (box), and min and max values (whiskers) from 4 biological replicates. P-values were determined using RM-one way ANOVA with Dunnett’s correction for multiple comparisons.
Aliquots of 0.4 mL of heparinized whole blood were mixed with 1.6 mL of serum-free RPMI cultivation medium with- or without indomethacin (# I7378, Sigma-Aldrich), GK420, or arachidonyl trifluoromethyl ketone (ATK) (Cayman #62120), prior to the addition of lipopolysaccharides (LPS) (1 μg/mL) to activate the cPLA2α enzyme (LPS was from E. coli 026:B6 γ-irradiated, #L2654, Sigma-Aldrich). Exogenous arachidonic acid (5–10 µM) (#3555, Sigma-Aldrich) was added after 23.5 h, for the final 30 mins of the 24 h stimulation. Following treatment (24 h, 37 °C, 5% CO2), the diluted blood was centrifuged (5992 × g for 10 min at 4 °C) to isolate the plasma from the cell fraction. Plasma samples were stored at −80 °C until analysis. Samples were analyzed at the Lipid Maps Consortium, UCSD according to the standard methods. 200 µL of sample was subjected to solid phase extraction of the eicosanoids using the StrataX solid phase extraction columns from Phenomenex and analyzed by UHPLC-MS/MS using full standards mix.

CCRF-CEM cells [4] = assay: intracellular ROS, ROS-red staining and flow cytometry, CCRF-CEM; format: cell-based, human; settings: CCRF-CEM, 8 µM, 4 h
Protocol: as §1, §2, §3
Figure S9. Intracellular ROS accumulation and cell death. a. Time dependency of the in-crease in iROS following treatment with AVX420 in CCRF-CEM cells as measured by ROS-red stain-ing. Data are the mean ±stdev from ≥2 biological replicates b. […]
±stdev of ≥2 biological replicates c. intracellular ROS measurements in CCRF-CEM cells treated with 0.5 µM AVX420 in the presence of 20 µM arachidonic acid (AA) or 5 µM liproxstatin (Lip) for 4 hours. Data are the mean ± stdev of 2 biological replicates. d. […]
analysis of ROS Red staining by flow cytometry. (i) Gating of live cells using FSC-H versus SSC-H.
(ii) Gating based on ROS Deep Red staining under control conditions and after treatment with (iii) […]
(1 picture or pasted object on this page, not shown here)

isolated human PBMCs = assay: eicosanoid release from A23187-stimulated PBMCs (ELISA); format: cell-based; set-up: 6-Keto PGF1a / 12-HETE: unit not given here; settings: 5 µM; for LTB4 level, PBMCs / PGE2 level, PBMCs / TxB2 level, PBMCs: A23187, individual replicate
Protocol: In PBMCs, the calcium ionophore A23187 stimulated the release of PGE2, TXB2, LTB4, 6-keto prostaglandin F1α (PGF1α), and 12-HETE.
PBMCs were isolated from buffy coats using Lymphoprep as described by the manufacturer ([…] Technologies, Vancouver, Canada). Red blood cells were lysed and removed using RBC lysis buffer (Roche, Basel, Switzerland) and the remaining cells were resuspended in 10 mL of RPMI-1640 supplemented with 5% FBS. The TC20 automated cell counter (BIO-RAD, Hercules, California, USA) was used to count the number of cells and check the viability by staining with trypan blue (0.4%) (NanoEnTek, Waltham, MA, USA). For experiments, 5 × 10^5 cells were seeded in 0.5 mL in 24 well plates with RPMI medium supplemented with 5% FBS, 0.3 mg/mL glutamine, and 0.1 mg/mL gentamicin. Cells were preincubated with inhibitors for 2 h before incubating with 30 µM Ca^2+ ionophore A23187 for 15 min to activate cPLA2α. After incubation, the supernatant was obtained by centrifugation at 5992 × g for 10 min at 4° and stored at −80 °C until assayed for PGE2, LTB4, TxB2, 6-Keto PGF1α, and 12S-HETE using enzyme-linked immunosorbent assays (ELISAs) (Cayman #514435, Cayman #10009292, Cayman #501020, Cayman #15210, and Enzo Lifesciences #ADI-900-050). After an overnight hybridization, the enzymatic conversion of substrate was read at OD420 nm using a Cytation 5 multimode platereader (Biotek Instruments, Winooski, VT, USA). Standard curves fit using 4-parameter logistic regression in myassays.com were used to calculate eicosanoid concentrations.

## CCCCC/C=C\C/C=C\C/C=C\C/C=C\CCCC(=O)O [AA]
CCRF-CEM cells [1]; AA-1, CTRL (no AVX420)
  viability signal, raw values: 846644,033333333 and 824265,666666667 and 673546,5
CCRF-CEM cells [1]; AA-5, CTRL (no AVX420)
  viability signal, raw values: 927085,7 and 753657,333333333 and 655816,5
CCRF-CEM cells [1]; AA-10, CTRL (no AVX420)
  viability signal, raw values: 862846,7 and 802148,333333333 and 667006,5
CCRF-CEM cells [1]; AA-20, CTRL (no AVX420)
  viability signal, raw values: 903682,366666667 and 709873,666666667 and 638998,5
CCRF-CEM cells [1]; AA-100, CTRL (no AVX420)
  viability signal, raw values: 925589,000333333 and 600588 and 592437,5
Jurkat E6.1 cells [2]
  ROS Negative Cells (Figure S9c): 97 and 95
  ROS Positive Cells (Figure S9c): 3 and 5
Jurkat E6.1 cells [3]; Jurkat E6.1, AA-1, CTRL (no AVX420)
  viability signal, raw values: 945477,333333333 and 910583,466666667 and 794162,5
Jurkat E6.1 cells [3]; Jurkat E6.1, AA-5, CTRL (no AVX420)
  viability signal, raw values: 896908,333333333 and 842500,133333333 and 777643
Jurkat E6.1 cells [3]; Jurkat E6.1, AA-10, CTRL (no AVX420)
  viability signal, raw values: 858625 and 837920,133333333 and 768078,5
Jurkat E6.1 cells [3]; Jurkat E6.1, AA-20, CTRL (no AVX420)
  viability signal, raw values: 835050 and 861305,466666667 and 719180

## CCCCC/C=C\C/C=C\C/C=C\C/C=C\CCCC(=O)C(F)(F)F [ATK, arachidonyl trifluoromethyl ketone]
Whole blood; 10 uM + LPS + AA
  5-HETE: 62.15 and 48.84 and 43.16 and 63.64
  11,12-EET: 12.43 and 12.11 and 11.23 and 10.37
  12-HETE: 131.5 and 102.1 and 99.1 and 71.1
  LTB4: 0.7 and 0.6 and 0.8 and 0.5
  15-HETE level, whole blood: 74.26 pmol/mL and 68.85 pmol/mL and 74.36 pmol/mL and 63.52 pmol/mL
  PGE2 level, whole blood: 16.3 pmol/mL and 19.3 pmol/mL and 11.3 pmol/mL and 11.2 pmol/mL
  TxB2 level, whole blood: 13.1 pmol/mL and 35.6 pmol/mL and 22.8 pmol/mL and 21.1 pmol/mL
Whole blood; 10 uM + LPS
  15-HETE level, whole blood: 0.26 pmol/mL and 1.13 pmol/mL and 0.31 pmol/mL and 0.48 pmol/mL
  PGE2 level, whole blood: 0.1 pmol/mL and 2.4 pmol/mL and 0.5 pmol/mL and 1.1 pmol/mL
  TxB2 level, whole blood: 1.2 pmol/mL and 9.9 pmol/mL and 2.1 pmol/mL and 3.4 pmol/mL
CCRF-CEM cells [4]
  intracellular ROS (iROS): increased iROS

## Cc1ccc(-c2cc(C(F)(F)F)nn2-c2ccc(S(N)(=O)=O)cc2)cc1 [Celecoxib, celecoxib, reference compound]
Isolated human PBMCs
  LTB4 level, PBMCs: 120.7 pg/mL and 156.9 pg/mL and 348.2 pg/mL and 111.7 pg/mL
  PGE2 level, PBMCs: 146.1 pg/mL and 36.8 pg/mL and 25.1 pg/mL and 59.9 pg/mL
  TxB2 level, PBMCs: 2358.3 pg/mL and 690.2 pg/mL and 212.9 pg/mL and 1753.1 pg/mL

## COc1ccc2c(c1)c(CC(=O)O)c(C)n2C(=O)c1ccc(Cl)cc1 [Indo, indomethacin]
Whole blood; 1 uM + LPS + AA
  5-HETE: 68.97 and 43.93 and 45.12 and 44.17
  11,12-EET: 9.56 and 11.87 and 10.26 and 11.6
  12-HETE: 64.2 and 109.5 and 89.5 and 60.3
  LTB4: 0.4 and 0.7 and 0.5
  15-HETE level, whole blood: 61.7 pmol/mL and 75.64 pmol/mL and 71.47 pmol/mL and 74.74 pmol/mL
  PGE2 level, whole blood: 11.3 pmol/mL and 12.8 pmol/mL and 10.1 pmol/mL and 11.1 pmol/mL
  TxB2 level, whole blood: 1.2 pmol/ml (2×) and 1.6 pmol/ml and 1 pmol/ml
Whole blood; 1 uM + LPS
  15-HETE level, whole blood: 0.16 pmol/mL and 0.77 pmol/mL and 0.18 pmol/mL and 0.15 pmol/mL
  PGE2 level, whole blood: 0.05 pmol/mL
  TxB2 level, whole blood: 0.05 pmol/ml (3×) and 0.1 pmol/ml
Whole blood; whole blood, LPS, in the absence and presence of exogenous free AA
  production of PGE2 and TXB2: suppressed the production

## CC(Cc1ccc(O)c(O)c1)C(C)Cc1ccc(O)c(O)c1 (stereo not shown) [NDGA, nordihydroguaiaretic acid, reference compound]
Isolated human PBMCs
  LTB4 level, PBMCs: 125.8 pg/mL and 134 pg/mL and 192.1 pg/mL and 116.5 pg/mL
  PGE2 level, PBMCs: 307.5 pg/mL and 191.3 pg/mL and 70.7 pg/mL and 334.8 pg/mL
  TxB2 level, PBMCs: 14617 pg/mL and 11007 pg/mL and 1627.4 pg/mL and 14685.3 pg/mL
Isolated human PBMCs; A23187 stimulated
  6-Keto PGF1a: 23.4 and 36.1
  12-HETE: 69724.1 and 75249.5 and 44247.8

## COc1ccc2cc([C@H](C)C(=O)O)ccc2c1 [Naproxen, naproxen, reference compound]
Isolated human PBMCs
  LTB4 level, PBMCs: 580.9 pg/mL and 678 pg/mL and 1105.1 pg/mL and 392.2 pg/mL
  PGE2 level, PBMCs: 99.6 pg/mL and 53.1 pg/mL and 27.7 pg/mL and 49.6 pg/mL
  TxB2 level, PBMCs: 2252.6 pg/mL and 716 pg/mL and 281.3 pg/mL and 1975.1 pg/mL

## COC(=O)c1ccc([C@@H]2c3[nH]c4ccccc4c3C[C@@H](C(=O)OC)N2C(=O)CCl)cc1 [RSL-3]
CCRF-CEM cells [1]; 0.06 µM, VEH
  cell viability (Control = 100): 29 and 32 and 36
Jurkat E6.1 cells [3]; Jurkat cells, 0.06 µM, VEH
  cell viability (Control = 100): 40 and 34 and 26
